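Step 1: Grow cells in 96-well plates. Step 2: Expose to compound for 48 hours at 5 concentrations. Step 3: Interpolate endpoints linearly; if unreached, use highest concentration. GI50 = concentration required for 50% inhibition of growth.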 The source made the active and inactive calls. Cut-off read from the data, not from the text of the source: active = GI50 up to about 1.1 µM and inactive = higher.
Experiments:
Experiment in all cases: NCI-60 cell line screen, 48 h
DLD-1 = tested on: DLD-1
DMS-114 = tested on: DMS-114
DMS-273 = tested on: DMS-273
HOP-18 = tested on: HOP-18
KM-20L2 = tested on: KM-20L2
LXFL 529 = tested on: LXFL 529
RXF 631 = tested on: RXF 631
SNB-78 = tested on: SNB-78
XF498 = tested on: XF498

Measured: GI50

Cc1cccc(C2=NC(C)(C)C(C)(C)N=C2c2cccc(C)n2)n1
inactive: DLD-1 98.6 µM | DMS-114 30.8 µM | DMS-273 > 100 µM | HOP-18 > 100 µM | KM-20L2 84.1 µM | LXFL 529 70.5 µM | RXF 631 > 100 µM | SNB-78 > 100 µM | XF498 > 100 µM

Source: ChEMBL document CHEMBL1201862, “PubChem BioAssay data set” (2004)
